IC50 data for 22 molecules are collected here from patent US20230026696A1, “TRPV4 RECEPTOR LIGANDS” (UNIVERSITY OF UTAH RESEARCH FOUNDATION, priority 2019, published 2023).

This assay has as its target T1, human TRPV4 (Homo sapiens, UniProt Q9HBA0).
T1 construct: expressed in transfected cells
Put plainly: Fluorometric cell-based Ca2+ flux assay, HEK-293 cells stably overexpressing human TRPV4. The following applies: HEK-293 stably overexpressing human TRPV4; agonist GSK1016790A 30 nM. The protocol: Fluorometric cell-based Ca^2+ flux assays were performed to assess TRPV4 antagonist activity and determine potency (IC50 values) in human embryonic kidney-293 cells (HEK-293) that stably overexpress human TRPV4. The assays were performed according to methods described in: Deering-Rice, C. E., Johansen, M. E., Roberts, J. K., Thomas, K. C., Romero, E. G., Lee, J., Yost, G. S., Veranth, J. M., and Reilly, C. A. (2012), Mol. Pharmacol. 81(3), 411-419; Shapiro, D., Deering-Rice, C. E., Romero, E. G., Hughen, R. W., Light, A. R., Veranth, J. M., and Reilly, C. A. (2013), Chem Res. Toxicol., 26, 750-758; and Deering-Rice, C. E., Mitchell, V. K., Romero, E. G., Abdel Aziz, M. H., and Reilly, C. A. (2014), Pharmacol. Res. & Perspectives. 2(5), 1-10.
The HEK-293 cells stably overexpressing human TRPV4 were grown to confluence in 2% (w/v) gelatin-coated 96-well plates in DMEM:F12 media supplemented with 5% fetal bovine serum, 1× penicillin/streptomycin (Invitrogen) and Geneticin (300 μg/mL).
The HEK-293 cells were prepared for assay by replacing the growth media with a 1:1 solution of LHC-9 and Fluo 4-Direct (Invitrogen) reagent containing Fluo 4-AM, pluronic F-127, probenecid, and a proprietary quencher dye. The cells were then incubated at 37° C. for 1 h in a cell culture incubator. The cells were subsequently washed by replacing the loading solution with LHC-9 containing 1 mM water-soluble probenecid (Invitrogen), 750 μM Trypan Red (ATT Bioquest), and a test compound (at various concentrations). The cells were incubated for an additional 30 minutes at 37° C. to allow for Fluo 4-AM cleavage and activation, as well as equilibration to both the test compounds and Fluo 4.
An agonist treatment solution (90 nM GSK1016790A, a potent activator of TRPV4) was prepared in LHC9 at 3× concentration and 25 μL was added to 50 μL of media on the cells in 96 well plates, providing a final concentration of 30 nM. Changes in cellular fluorescence were monitored with a BMG Labtech NOVOStar fluorescence plate reader for 1 minute at 37° C. Data were quantified as the maximum rate of change in fluorescence intensity (max ΔF/s), corrected for media only treatment (negative control), and represented as the percentage of response relative to the no antagonist control. A minimum of three replicates were used for each treatment condition, with a minimum of 8 concentrations to derive the IC50 values reported for each antagonist. The IC50 values for each antagonist, which are shown in Table 4 below, were calculated according to methods described in the assays were performed according to methods described in: Deering-Rice, C. E., Johansen, M. E., Roberts, J. K., Thomas, K. C., Romero, E. G., Lee, J., Yost, G. S., Veranth, J. M., and Reilly, C. A. (2012), Mol. Pharmacol. 81(3), 411-419; Shapiro, D., Deering-Rice, C. E., Romero, E. G., Hughen, R. W., Light, A. R., Veranth, J. M., and Reilly, C. A. (2013), Chem Res. Toxicol., 26, 750-758; and Deering-Rice, C. E., Mitchell, V. K., Romero, E. G., Abdel Aziz, M. H., and Reilly, C. A. (2014), Pharmacol. Res. & Perspectives. 2(5), 1-10.

Structures can show the parent of a compound that is named as a salt.

T1 sequence (Q9HBA0 whole entry): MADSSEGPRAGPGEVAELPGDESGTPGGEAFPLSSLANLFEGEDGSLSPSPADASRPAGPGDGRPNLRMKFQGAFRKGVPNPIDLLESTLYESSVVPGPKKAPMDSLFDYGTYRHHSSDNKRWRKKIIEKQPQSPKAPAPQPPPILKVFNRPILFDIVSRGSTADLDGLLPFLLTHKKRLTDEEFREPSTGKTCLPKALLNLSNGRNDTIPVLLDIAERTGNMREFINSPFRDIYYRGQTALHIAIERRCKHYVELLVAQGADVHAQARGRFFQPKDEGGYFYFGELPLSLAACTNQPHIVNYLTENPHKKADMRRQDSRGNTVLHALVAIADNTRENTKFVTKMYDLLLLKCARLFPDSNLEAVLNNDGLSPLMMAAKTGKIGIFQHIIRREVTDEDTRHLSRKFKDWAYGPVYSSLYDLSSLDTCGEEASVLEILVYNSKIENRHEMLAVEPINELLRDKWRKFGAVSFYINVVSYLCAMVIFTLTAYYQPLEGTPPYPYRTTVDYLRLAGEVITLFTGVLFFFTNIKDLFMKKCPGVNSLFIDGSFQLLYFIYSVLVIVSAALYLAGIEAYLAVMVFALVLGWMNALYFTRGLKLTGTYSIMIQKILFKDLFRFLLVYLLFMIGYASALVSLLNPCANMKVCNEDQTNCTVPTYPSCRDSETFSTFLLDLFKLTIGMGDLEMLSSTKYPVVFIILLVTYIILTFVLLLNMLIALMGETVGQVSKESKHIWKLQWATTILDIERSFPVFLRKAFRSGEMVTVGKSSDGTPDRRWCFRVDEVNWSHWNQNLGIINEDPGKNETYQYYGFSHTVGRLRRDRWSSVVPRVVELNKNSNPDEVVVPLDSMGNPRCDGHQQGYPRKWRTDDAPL

Turning to `N#Cc1ccc(OCC2(CNCC3CCOCC3)CN(S(=O)(=O)c3ccc(Cl)cc3Cl)C2)cc1F` [Compound 29, 4-((1-((2,4-Dichlorophenyl)sulfonyl)-3-((((tetrahydro-2H-pyran-4-yl)methyl)amino)methyl)azetidin-3-yl)methoxy)-2-fluorobenzonitrile hydrochloride], the IC50 (as a rule, the point on the concentration scale where inhibition reaches its midpoint) is 5.2 nM. To `C[C@@H](O)CNCC1(COc2ccc(C#N)c(F)c2)CN(S(=O)(=O)c2ccc(Cl)cc2Cl)C1` [Compound 30, (R)-4-((1-((2,4-Dichlorophenyl)sulfonyl)-3-(((2-hydroxypropyl)amino)methyl)azetidin-3-yl)methoxy)-2-fluorobenzonitrile hydrochloride] belongs 0.3 nM; to `C[C@H](O)CNCC1(COc2ccc(C#N)c(F)c2)CN(S(=O)(=O)c2ccc(Cl)cc2Cl)C1` [Compound 31, (S)-4-((1-((2,4-dichlorophenyl)sulfonyl)-3-(((2-hydroxypropyl)amino)methyl)azetidin-3-yl)methoxy)-2-fluorobenzonitrile hydrochloride], 0.4 nM. For `CC(CO)NCC1(COc2ccc(C#N)c(F)c2)CN(S(=O)(=O)c2ccc(Cl)cc2Cl)C1` (stereo not shown) [Compound 32, 4-((1-((2,4-Dichlorophenyl)sulfonyl)-3-(((1-hydroxypropan-2-yl)amino)methyl)azetidin-3-yl)methoxy)-2-fluorobenzonitrile hydrochloride] the value was 0.3 nM; for `N#Cc1ccc(OCC2(CNCC(O)CO)CN(S(=O)(=O)c3ccc(Cl)cc3Cl)C2)cc1F` (stereo not shown) [Compound 33, 4-((1-((2,4-Dichlorophenyl)sulfonyl)-3-(((2,3-dihydroxypropyl)amino)methyl)azetidin-3-yl)methoxy)-2-fluorobenzonitrile hydrochloride], 0.3 nM.

Take `CC(CO)CNCC1(COc2ccc(C#N)c(F)c2)CN(S(=O)(=O)c2ccc(Cl)cc2Cl)C1` (stereo not shown) [Compound 34, 4-((1-((2,4-Dichlorophenyl)sulfonyl)-3-(((3-hydroxy-2-methylpropyl)amino)methyl)azetidin-3-yl)methoxy)-2-fluorobenzonitrile hydrochloride]: the IC50 is 0.2 nM. To `CC(O)CCNCC1(COc2ccc(C#N)c(F)c2)CN(S(=O)(=O)c2ccc(Cl)cc2Cl)C1` (stereo not shown) [Compound 35, 4-((1-((2,4-dichlorophenyl)sulfonyl)-3-(((3-hydroxybutyl)amino)methyl)azetidin-3-yl)methoxy)-2-fluorobenzonitrile hydrochloride] belongs 0.7 nM. Consider `N#CCCNCC1(COc2ccc(C#N)c(F)c2)CN(S(=O)(=O)c2ccc(Cl)cc2Cl)C1` [Compound 36, 4-((3-(((2-Cyanoethyl)amino)methyl)-1-((2,4-dichlorophenyl)sulfonyl)azetidin-3-yl)methoxy)-2-fluorobenzonitrile], for which the IC50 amounted to 10 nM. For `CCOC(=O)CCNCC1(COc2ccc(C#N)c(F)c2)CN(S(=O)(=O)c2ccc(Cl)cc2Cl)C1` [Compound 37, Ethyl 3-(((3-((4-Cyano-3-fluorophenoxy)methyl)-1-((2,4-dichlorophenyl)sulfonyl)azetidin-3-yl)methyl)amino)propanoate hydrochloride] the value was 3.3 nM; for `N#Cc1ccc(OCC2(CN[C@H]3C[C@@H](O)C3)CN(S(=O)(=O)c3ccc(Cl)cc3Cl)C2)cc1F` [Compound 38, 4-((1-((2,4-Dichlorophenyl)sulfonyl)-3-((((cis)-3-hydroxycyclobutyl)amino)methyl)azetidin-3-yl)methoxy)-2-fluorobenzonitrile hydrochloride], 1.8 nM; for `N#Cc1ccc(OCC2(CN[C@H]3CC[C@@H](O)CC3)CN(S(=O)(=O)c3ccc(Cl)cc3Cl)C2)cc1F` [Compound 39, 4-((1-((2,4-Dichlorophenyl)sulfonyl)-3-((((cis)-4-hydroxycyclohexyl)amino)methyl)azetidin-3-yl)methoxy)-2-fluorobenzonitrile hydrochloride], 1.3 nM. To `N#Cc1ccc(OCC2(CNC[C@H]3CCCO3)CN(S(=O)(=O)c3ccc(Cl)cc3Cl)C2)cc1F` [Compound 40, (R)-4-((1-((2,4-dichlorophenyl)sulfonyl)-3-((((tetrahydrofuran-2-yl)methyl)amino)methyl)azetidin-3-yl)methoxy)-2-fluorobenzonitrile hydrochloride] belongs 13.4 nM. For `N#Cc1ccc(OCC2(CN[C@H]3CC[C@H](O)CC3)CN(S(=O)(=O)c3ccc(Cl)cc3Cl)C2)cc1F` [Compound 41, 4-((1-((2,4-Dichlorophenyl)sulfonyl)-3-((((trans)-4-hydroxycyclohexyl)amino)methyl)azetidin-3-yl)methoxy)-2-fluorobenzonitrile hydrochloride] the value was 0.3 nM; for `N#Cc1ccc(OCC2(CN[C@H]3C[C@H](O)C3)CN(S(=O)(=O)c3ccc(Cl)cc3Cl)C2)cc1F` [Compound 42, 4-((1-((2,4-Dichlorophenyl)sulfonyl)-3-((((trans)-3-hydroxycyclobutyl)amino)methyl)azetidin-3-yl)methoxy)-2-fluorobenzonitrile hydrochloride], 1.3 nM. Molecule `N#Cc1ccc(OCC2(CN)CN(S(=O)(=O)c3ccc(Cl)cc3Cl)C2)cc1F` [Compound 44, 4-((3-(Aminomethyl)-1-((2,4-dichlorophenyl)sulfonyl)azetidin-3-yl)methoxy)-2-fluorobenzonitrile] came in with an IC50 of 8.7 nM. Turning to `CC(=O)NCC1(COc2ccc(C#N)c(F)c2)CN(S(=O)(=O)c2ccc(Cl)cc2Cl)C1` [Compound 45, N-((3-((4-Cyano-3-fluorophenoxy)methyl)-1-((2,4-dichlorophenyl)sulfonyl)azetidin-3-yl)methyl)acetamide], the IC50 amounted to 3000 nM. For `N#Cc1ccc(OCC2(CNC(=O)CN)CN(S(=O)(=O)c3ccc(Cl)cc3Cl)C2)cc1F` [Compound 46, 2-Amino-N-((3-((4-cyano-3-fluorophenoxy)methyl)-1-((2,4-dichlorophenyl)sulfonyl)azetidin-3-yl)methyl)acetamide] the value was 52 nM; for `N#Cc1ccc(OCC2(CNC(=O)CO)CN(S(=O)(=O)c3ccc(Cl)cc3Cl)C2)cc1F` [Compound 47, N-((3-((4-Cyano-3-fluorophenoxy)methyl)-1-((2,4-dichlorophenyl)sulfonyl)azetidin-3-yl)methyl)-2-hydroxyacetamide], 348 nM. To `CNCC(=O)NCC1(COc2ccc(C#N)c(F)c2)CN(S(=O)(=O)c2ccc(Cl)cc2Cl)C1` [Compound 48, N-((3-((4-Cyano-3-fluorophenoxy)methyl)-1-((2,4-dichlorophenyl)sulfonyl)azetidin-3-yl)methyl)-2-(methylamino)acetamide] belongs 252 nM; to `N#Cc1ccc(OCC2(CNS(=O)(=O)CCN)CN(S(=O)(=O)c3ccc(Cl)cc3Cl)C2)cc1F` [Compound 49, 2-Amino-N-((3-((4-cyano-3-fluorophenoxy)methyl)-1-((2,4-dichlorophenyl)sulfonyl)azetidin-3-yl)methyl)ethane-1-sulfonamide], 110 nM.

In turn, `N#Cc1ccc(OCC2(CN3CCOCC3)CN(S(=O)(=O)c3ccc(Cl)cc3Cl)C2)cc1F` [Compound 50, 4-((1-((2,4-Dichlorophenyl)sulfonyl)-3-(morpholinomethyl)azetidin-3-yl)methoxy)-2-fluorobenzonitrile hydrochloride] showed a half-inhibitory concentration (IC50) of 794 nM.

Consider `CC(C)(C)OC(=O)NC1(COc2ccc(C#N)c(F)c2)CN(S(=O)(=O)c2ccc(Cl)cc2Cl)C1` [Compound 51, tert-Butyl (3-((4-cyano-3-fluorophenoxy)methyl)-1-((2,4-dichlorophenyl)sulfonyl)azetidin-3-yl)carbamate], for which the IC50 is 3350 nM.
